For experiment [1], the target named is SDS-activated 20S proteasome from rabbit muscle (Oryctolagus cuniculus, UniProt G1SU71+G1T4Q9). The experiment is described as follows: Kinetic assay: inhibition of the 20S proteasome. Format: biochemical. The method, then: P, AA^1, AA^2, AA^3, and Z^1 and Z^2 represent the structures present on formula (1) or (2). The protocol for the kinetic assay described in Tables II-V is as described in Rock et al., Cell 78:761-771 (1994). In these tables, Ki values are reported, which are dissociation constants for the equilibrium that is established when enzyme and inhibitor interact to form the enzyme:inhibitor complex. The reactions were performed using SDS-activated 20S proteasome from rabbit muscle. The substrate used was Suc-LLVY-AMC.

The next experiment deals with C2C12 cells. The experiment is described as follows: Inhibition of protein degradation in C2C12 cells. Format: cell-based, mouse. The following applies: 35S-methionine labelled cells, percent decrease in TCA soluble radioactivity, media with 50% serum. On the procedure: One approach to testing drug candidates for their ability to inhibit the ATP-ubiquitin-dependent degradative process is to measure proteolysis in cultured cells (Rock, et al., Cell 78:761 (1994)). For example, the degradation of long-lived intracellular proteins can be measured in mouse C2C12 myoblast cells. Cells are incubated with ^35S-methionine for 48 hours to label long-lived proteins and then chased for 2 hours with medium containing unlabeled methionine. After the chase period, the cells are incubated for 4 hours in the presence or absence of the test compound. The amount of protein degradation in the cell can be measured by quantitating the trichloroacetic acid soluble radioactivity released from the pre-labeled proteins into the growth medium (an indicator of intracellular proteolysis).
C2C12 cells (a mouse myoblast line) were labelled for 48 hrs with ^35S-methionine. The cells were then washed and preincubated for 2 hrs in the same media supplemented with 2 mM unlabelled methionine. The media was removed and replaced with a fresh aliquot of the preincubation media containing 50% serum, and a concentration of the compound to be tested. The media was then removed and made up to 10% TCA and centrifuged. The TCA soluble radioactivity was counted. Inhibition of proteolysis was calculated as the percent decrease in TCA soluble radioactivity.

Where [2] appears, read: Table II, SDS-activated 20S proteasome from rabbit muscle, substrate Suc-LLVY-AMC.

pIC50, pKi: −log10 of the molar value.

Take `CC(C)C[C@H](NC(=O)[C@H](Cc1cccc2ccccc12)NC(=O)OCc1ccccc1)B(O)O` [MG-270]: the pKi in experiment [1] (setting [2]) was 10.08. Moreover, in the experiment with C2C12 cells, the pIC50 is 6.14.
Taken in the same sequence, the figures for `CC(C)CC(NC(=O)C(Cc1ccc2ccccc2c1)NC(=O)OCc1ccccc1)B(O)O` (stereo not drawn) [MG-272] were 7.47 and 5.22.
`CC(C)C[C@H](NC(=O)[C@H](CC(C)C)NC(=O)[C@H](CC(C)C)NC(=O)N1CCOCC1)B(O)O` [MG-278] gave a negative-log Ki (pKi) in experiment [1] (setting [2]) of 9.85. In addition, the pIC50 with C2C12 cells (Mus musculus, C2C12) is 5.12.
`CC(C)C[C@H](NC(=O)[C@H](Cc1c[nH]cn1)NC(=O)OCc1ccccc1)B(O)O` [MG-282] gave a negative-log Ki (pKi) in experiment [1] (setting [2]) of 7.60. Further, in the experiment on C2C12 cells, the pIC50 was 4.19.
Turning to `CC(=O)N[C@@H](CC(C)C)C(=O)N[C@@H](CC(C)C)C(=O)N[C@@H](CC(C)C)B(O)O` [MG-283], the pKi in experiment [1] (setting [2]) is 9.34. For the same molecule, the negative logarithm of the IC50 (pIC50) in the experiment with C2C12 cells (Mus musculus, C2C12) is 5.52.
As to `CC(C)C[C@H](NC(=O)[C@H](Cc1c[nH]c2ccccc12)NC(=O)N1CCOCC1)B(O)O` [MG-285], the pKi in experiment [1] (setting [2]) was 8.52. The negative logarithm of the IC50 (pIC50) in the experiment with C2C12 cells was 5.62.
Take `CC(C)C[C@H](NC(=O)[C@H](Cc1cccc2ccccc12)NC(=O)N1CCOCC1)B1OCCNCCO1` [MG-286, Diethanolamine N-(4-Morpholine)carbonyl-β-(1-naphthyl)-L-alanine-L-leucine Boronate]: the pKi in experiment [1] (setting [2]) is 9.82. Besides, in the experiment with C2C12 cells (Mus musculus, C2C12), the pIC50 was 7.02.
`CC(C)C[C@H](NC(=O)[C@H](Cc1cccnc1)NS(C)(=O)=O)B(O)O` [MG-289] gave a pKi in experiment [1] (setting [2]) of 8.20. Further, the pIC50 in the experiment on C2C12 cells is 4.97.
Taken in the same sequence, the figures for `CC(=O)N[C@@H](Cc1cccnc1)C(=O)N[C@@H](CC(C)C)B(O)O` [MG-290] were 8.27 and 4.99.
The molecule `CC(C)CC(NC(=O)C(Cc1ccc2ncccc2c1)NC(=O)N1CCOCC1)B(O)O` [MG-292, N-(4-Morpholine)carbonyl-β-(6-quinolinyl)-D, L-alanine-L-leucine Boronic Acid] gave a negative-log Ki (pKi) in experiment [1] (setting [2]) of 8.22. In addition, the pIC50 with C2C12 cells (Mus musculus, C2C12) was 4.95.
In turn, `CC(C)C[C@H](NC(=O)[C@H](Cc1cccc2ccccc12)NC(=O)c1ccc2ccccc2n1)B(O)O` [MG-298] gave a pKi in experiment [1] (setting [2]) of 10.12. The pIC50 with C2C12 cells is 6.64.
The corresponding values for `CC(C)C[C@H](NC(=O)[C@H](Cc1cccc2ccccc12)NC(=O)c1cnc2ccccc2n1)B(O)O` [MG-299] are 9.85 and 6.55.
The corresponding values for `CC(=O)N[C@@H](Cc1c[nH]c2ccccc12)C(=O)N[C@@H](CC(C)C)B(O)O` [MG-301] are 8.89 and 5.89.
In the case of `CC(C)C[C@H](NC(=O)[C@H](Cc1ccc(OCc2ccccc2)cc1)NC(=O)N1CCOCC1)B(O)O` [MG-306, N-(4-Morpholine)carbonyl-(O-benzyl)-L-tyrosine-L-leucine Boronic Acid], in experiment [1] (setting [2]), the pKi was 9.64. Moreover, in the experiment on C2C12 cells (Mus musculus, C2C12), the pIC50 is 6.89.
`CC(C)C[C@H](NC(=O)[C@H](Cc1ccc(O)cc1)NC(=O)N1CCOCC1)B(O)O` [MG-307, N-(4-morpholine)carbonyl-L-tyrosine-L-leucine boronic acid] showed a pKi in experiment [1] (setting [2]) of 9.29. For the same molecule, in the experiment on C2C12 cells, the negative-log IC50 (pIC50) was 5.32.
For the molecule `CC(C)CC(NC(=O)C(Cc1ccc2ccccc2c1)NC(=O)N1CCOCC1)B(O)O` (stereo not drawn) [MG-308], the pKi in experiment [1] (setting [2]) was 9.14. The negative-log IC50 (pIC50) in the experiment with C2C12 cells is 7.02.
Consider `CC(C)C[C@H](NC(=O)[C@H](Cc1ccccn1)NC(=O)N1CCOCC1)B(O)O` [MG-312], for which, in experiment [1] (setting [2]), the pKi was 8.20. In the experiment with C2C12 cells, the pIC50 was 5.96.
Turning to `CC(C)C[C@H](NC(=O)CCc1ccccc1)B(O)O` [MG-313], in the experiment with C2C12 cells (Mus musculus, C2C12), the pIC50 was 5.46.
On to `CC(C)C[C@H](NC(=O)[C@H](Cc1ccccc1)NC(=O)c1ccc2ccccc2n1)B(O)O` [MG-314], for which the pKi in experiment [1] (setting [2]) was 9.72. Also, in the experiment with C2C12 cells, the pIC50 is 6.89.
`CC(C)C[C@H](NC(=O)[C@H](Cc1ccc2ccccc2n1)NC(=O)N1CCOCC1)B(O)O` [MG-315, N-(4-Morpholine)carbonyl-β-(2-quinolyl)-L-alanine-L-leucine Boronic Acid] gave a pKi in experiment [1] (setting [2]) of 8.66. Also, the pIC50 in the experiment on C2C12 cells (Mus musculus, C2C12) is 6.47.
`CC(C)C[C@H](NC(=O)[C@@H]1Cc2ccccc2CN1)B(O)O` [MG-316] gave a pKi in experiment [1] (setting [2]) of 7.66. In addition, the pIC50 in the experiment with C2C12 cells (Mus musculus, C2C12) was 4.68.
Taken in the same sequence, the figures for `CC(C)C[C@H](NC(=O)[C@@H]1CCCN1)B(O)O` [MG-319] were 7.70 and 4.85.
Molecule `O=C(NC(Cc1ccccc1)B(O)O)C(Cc1cccc2ccccc12)NC(=O)N1CCOCC1` (stereo not drawn) [MG-321] showed a pKi in experiment [1] (setting [2]) of 9.49. For the same molecule, the pIC50 with C2C12 cells was 5.62.
`CC(C)CC(NC(=O)C(CCc1ccccc1)NC(=O)N1CCOCC1)B(O)O` (stereo not drawn) [MG-322] had a negative-log Ki (pKi) in experiment [1] (setting [2]) of 8.66. Also, the pIC50 with C2C12 cells was 6.42.
For the molecule `CC(C)C[C@H](NC(=O)[C@H](CCc1ccccc1)NC(=O)c1ccc2ccccc2n1)B(O)O` [MG-325, N-(2quinoline)carbonyl-L-homophenylalanine-L-leucine boronic acid], the pKi in experiment [1] (setting [2]) is 8.55. Further, the pIC50 in the experiment on C2C12 cells (Mus musculus, C2C12) was 5.96.
Molecule `CC(C)C[C@H](NC(=O)[C@H](Cc1cccc2ccccc12)NC(=O)c1ccccc1)B(O)O` [MG-328] showed a negative logarithm of the Ki (pKi) in experiment [1] (setting [2]) of 10.06. For the same molecule, the pIC50 with C2C12 cells is 7.16.
Taken in the same sequence, the figures for `CC(C)C[C@H](NC(=O)[C@H](Cc1cccc2ccccc12)NC(=O)C1CCCCC1)B(O)O` [MG-329] were 10.52 and 7.32.
In the case of `CN[C@@H](Cc1cccc2ccccc12)C(=O)N[C@@H](CC(C)C)B(O)O` [MG-333], the pKi in experiment [1] (setting [2]) is 8.68. In addition, the negative-log IC50 (pIC50) with C2C12 cells (Mus musculus, C2C12) was 6.66.
The molecule `CC(C)C[C@H](NC(=O)[C@H](Cc1ccccc1)NC(=O)c1cccnc1)B(O)O` [MG-336, N-(3-pyridine)carbonyl-L-phenylalanine-L-leucine boronic acid] gave a pKi in experiment [1] (setting [2]) of 9.60. Besides, the pIC50 in the experiment on C2C12 cells (Mus musculus, C2C12) was 7.00.
The molecule `CC(C)C[C@H](NC(=O)[C@H](Cc1ccccc1)NC(=O)c1ccccn1)B(O)O` [MG-343] showed a pKi in experiment [1] (setting [2]) of 9.38. In addition, the pIC50 in the experiment with C2C12 cells was 7.24.
Take `CC(C)C[C@H](NC(=O)[C@H](Cc1ccccn1)NC(=O)c1ccccc1)B(O)O` [MG-345]: the pKi in experiment [1] (setting [2]) is 9.12. Also, the pIC50 in the experiment on C2C12 cells was 6.92.
For `CC(C)C[C@H](NC(=O)[C@H](Cc1ccccn1)NC(=O)C1CCCCC1)B(O)O` [MG-346], the pKi in experiment [1] (setting [2]) was 8.96. In addition, in the experiment on C2C12 cells, the pIC50 was 6.82.
Taken in the same sequence, the figures for `CC(C)C[C@H](NC(=O)[C@H](Cc1ccccn1)NS(=O)(=O)c1cccc2cccnc12)B(O)O` [MG-347] were 7.54 and 4.89.
Regarding `CC(C)C[C@H](NC(=O)[C@H](Cc1ccccc1)NC(=O)NCc1ccccc1)B(O)O` [MG-350], the negative logarithm of the Ki (pKi) in experiment [1] (setting [2]) was 9.85. Moreover, the pIC50 in the experiment on C2C12 cells is 6.80.
In turn, `CC(C)C[C@H](NC(=O)[C@@H](N)Cc1ccccn1)B(O)O` [MG-351] had a pKi in experiment [1] (setting [2]) of 7.49. In addition, in the experiment with C2C12 cells, the negative logarithm of the IC50 (pIC50) is 5.09.
Take `CC(C)C[C@H](NC(=O)[C@@H]1CCCCN1)B(O)O` [MG-366]: the pKi in experiment [1] (setting [2]) is 7.34.
Same read-out and setting: under `CC(C)C[C@H](NC(=O)[C@H](Cc1ccccn1)NC(=O)c1cnccn1)B(O)O` [MG-368] stands 8.25; under `CC(C)C[C@H](NC(=O)[C@@H]1CCN1)B(O)O` [MG-369], 7.62.
For the molecule `CC(C)C[C@H](NC(=O)[C@H](Cc1ccccc1)NS(=O)(=O)c1cccc2cccnc12)B(O)O` [MG-380], the pKi in experiment [1] (setting [2]) was 8.36.
`CC(C)C[C@H](NC(=O)[C@H](Cc1ccc(F)cc1)NC(=O)c1cnccn1)B(O)O` [MG-382] showed a pKi in experiment [1] (setting [2]) of 9.02.
Turning to `CC(C)C[C@@H](NC(=O)[C@H](Cc1ccc(F)cc1)NC(=O)c1ccccn1)B(O)O` [MG-383], the pKi in experiment [1] (setting [2]) is 9.08.
Regarding `CC(C)C[C@H](NC(=O)[C@@H]1C[C@@H](OCc2ccc3ccccc3n2)CN1)B(O)O` [MG-385], the pKi in experiment [1] (setting [2]) was 7.64.
`CC(C)CC(NC(=O)C1CC2CCCCC2N1)B(O)O` (stereo not drawn) [MG-386] had a pKi in experiment [1] (setting [2]) of 7.04.
Consider “N-(3-phenylpropionyl)-L-phenylalanine-L-leucine boronic acid [MG-352]”, for which, in experiment [1] (setting [2]), the pKi is 9.82.
As to “N-Cbz-L-Leucine-L-leucine Boronic Acid [MG-274]”, the pKi in experiment [1] (setting [2]) was 8.52; in experiment [1] (Table III, dipeptide boronic acid vs dipeptide aldehyde), 8.52. Besides, in the experiment with C2C12 cells, the pIC50 was 6.47.
Consider “N-Methyl-N-Cbz-L-leucine-L-leucine Boronic Acid [MG-268]”, for which the pKi in experiment [1] (setting [2]) is 6.00.
On the same count and under the same terms, under “cis-3-Phenyl-D,L-proline-L-leucine Boronic Acid Hydrochloride Salt [MG-359]” stands 8.26; under “trans-3-Phenyl-D,L-proline-L-leucine Boronic Acid Hydrochloride Salt [MG-363]”, 8.46.
Still for that read-out and setting: under “trans-4-Phenoxy-L-proline-L-leucine Boronic Acid [MG-349]” stands 7.74.
In experiment [1] (setting [2]), “β-(1-Naphthyl)-L-alanine-L-leucine Boronic Acid Hydrochloride Salt [MG-302]” gave a pKi of 8.12. Also, the negative logarithm of the IC50 (pIC50) in the experiment on C2C12 cells is 6.57.

Source of the values: US6465433B1, “Boronic ester and acid compounds, synthesis and uses” (Millennium Pharmaceuticals, Inc., priority 1994, dated 2002).
